Assay results taken from patent publication US20250127774A1, “COMPOUNDS FOR LABELLING NUCLEIC ACID AND USES THEREOF” (THE ROYAL INSTITUTION FOR THE ADVANCEMENT OF …, priority 2022, published 2025).

Experiment: Photophysical measurements (quantum yield) of PINK and PINK-VdU-ox
Format: physicochemical
Details: excitation 488 nm, Rhodamine 6G standard; PINK in aqueous and aprotic solvents, 6 depending on the solvent used
Protocol: PINK (4) undergoes a highly fluorogenic and regioselective IEDDA reaction with VdU (5) to give “PINK-VdU-ox” (6) as a single isomer in a 76% isolated yield after 7d at 60° C. (Scheme 1). The slow rate of this non-templated reaction (Kapp=0.01 M^−1 s^−1, FIG. 5) is due to the combination of an unstrained terminal alkene and unactivated tetrazine.^[49] Over the course of the reaction, a ˜100-fold increase in fluorescence was observed (FIG. 3, c). With a quantum yield (φF)<0.2%, PINK (4) is essentially non-fluorescent in both aqueous and aprotic solvents (FIG. 6).
Highly viscous solvents, including glycerol and polyethylene glycol (PEG 200) induced higher fluorescence of 6, likely by restricting bond rotation and thus suppressing formation of a non-emissive, twisted intramolecular charge transfer (TICT) state.^[50]
Photophysical Measurements. Stock solutions (1-10 mM) of investigated compounds were prepared in DMSO and stored at −20° C. DMSO concentrations were less than 1% after dilution into the respective solvent/aqueous buffer. Measurements were collected on a SpectraMax M5 plate reader (Molecular Devices, Sunnyvale, CA, USA) in 1 cm path-length quartz cuvettes. Quantum yields were obtained by excitation at 488 nm using Rhodamine 6G ((=0.94) in EtOH (n=1.3624) as a fluorescent standard.^[1] Quantum yields were calculated using the equation I: […]

## Cc1nnc(-c2ccc3cc4ccc(N(C)C)cc4nc3c2)nn1 [PINK]
  quantum yield (φF): < 0.2%
